Source: publication PMC6240685, “Strong Inhibitory Effect, Low Cytotoxicity and High Plasma Stability of Steroidal Inhibitors of N-Methyl-D-Aspartate Receptors With C-3 Amide Structural Motif” (Frontiers in Pharmacology, 2018)

System: native NMDARs
Assay: Inhibition of native NMDAR responses in cultured hippocampal neurons
Format: cell-based, rat
Protocol: FIGURE 8 The effect of compound 6 on peak and steady-state responses of native NMDARs, AMPARs, and GABARs. (A) Examples of traces obtained from cultured hippocampal neurons. Compound 6 (10 μM) was pre-applied in the absence of agonists followed by co-application with NMDA (100 μM), AMPA (100 μM), and GABA (5 μM) (duration of agonist and steroid application is indicated by filled and open bars, respectively). (B) Bar graph represents the mean values of relative changes in the peak (black columns) and steady-state (red columns) responses of native NMDARs, AMPARs, and GABARs recorded in the continuous presence of 10 μM compound 6. Error bars represent SD from five independent measurements. Asterisks mark significance at the level of P < 0.05 (Paired t-test). […]
Electrophysiological experiments were performed on HEK293 cells transfected with plasmids encoding rat GluN1-1a/GluN2A-D and GFP genes as described previously, ([Petrovic et al., 2005]; [Cais et al., 2008]; [Korinek et al., 2010]) or on primary hippocampal neurons prepared from P0–P1 rats, plated on collagen/poly-D-lysine-coated glass coverslips at a density of ∼50,000 cells/cm^2, and grown in Neurobasal A medium with B27 Supplement (Gibco). […] Agonist-induced responses were low-pass filtered at 2 kHz, digitally sampled at 5 kHz, and analyzed with pClamp software version 10.5 (Molecular Devices). […]

With `C[C@@]12CCC[C@H]1[C@@H]1CC[C@@H]3C[C@H](NC(=O)[C@@H](N)CC(=O)O)CC[C@]3(C)[C@H]1CC2` [Compound 6, (S)-3-amino-4-(((3R,5R,8S,9S,10S,13S,14S)-10,13-dimethylhexadecahydro-1H-cyclopenta[a]phenanthren-3-yl)amino)-4-oxobutanoic acid] the “inhibition of steady-state vs peak response, NMDARs” value (10 μM compound present continuously, NMDA 100 μM) was “more efficient inhibitor of tonically activated receptors at the steady–state” and the IC50 (100 μM NMDA, hippocampal neurons) was 8.3 ± 2.1 µM.
